Test results taken from patent publication US20260240835A1 (priority 2022, published 2026).
Where a name gives a salt, the structure may show the parent alone. Read-outs that look alike come from different tables or passages of the source.

Columns and labels:
[1] = Pharmacokinetics in moderate renal impairment versus matched controls
From the text: (§1) References used are the matched healthy subjects for renal and hepatic impairment studies, and extensive or ultra-extensive CYP2D6 metabolizers respectively.

[2] = Pharmacokinetics in moderate hepatic impairment versus matched healthy subjects; type: in vivo, human
From the text: Data are GMRs and 90% Cls. References used are the matched healthy subjects for renal and hepatic impairment studies, and extensive or ultra-extensive CYP2D6 metabolizers respectively.

[3] = Solubility of the powder in water
[4] = Effect of food on pharmacokinetics of the subject combination
[5] = Pharmacokinetics in CYP2D6 poor metabolizers versus extensive metabolizers; settings: 12 poor metabolizers treated with the subject combination in efficacy trials
From the text: Approximately 7% to 10% of Caucasians and 3% to 8% of African Americans lack the capacity to metabolize CYP2D6 substrates and are classified as poor metabolizers.
as §1

[6] = Co-administration of paroxetine and the subject combination (drug interaction)
[7] = Steady state pharmacokinetics after administration of the subject combination; settings: for dose proportionality of changes in AUC and Cmax at steady state: co-administered with bupropion; for AUC0-12 relative to that of bupropion / Cmax relative to that of bupropion / time post-dose at which Cmax of the metabolite occurs: after administration of the subject combination; for apparent elimination half-life of metabolite: subject combination
[8] = tested on: patients with treatment-resistant depression or MDD with acute suicidal ideation or behavior; settings: cited from earlier work
[9] = human, in vivo
[10] = 20 mg paroxetine, tablet of Example 4 twice daily, vs tablet without paroxetine
[11] = given as the subject combination
[12] = 7 subjects with moderate (GFR 30-60 mL/min) renal impairment vs 6 matched controls

**Q.** Which results are given for `CC(NC(C)(C)C)C(=O)c1cccc(Cl)c1` (racemic) [bupropion]?
**A.** increase in exposure versus matched controls with normal renal function ([1]; human, in vivo): approximately 2 fold; reduction in clearance versus matched controls with normal renal function ([1]; human, in vivo): 50%; AUC0-12 and Cmax compared with healthy patients ([2]; human, in vivo): not significantly different

**Q.** With `COc1ccc2c(c1)[C@]13CCCC[C@@H]1[C@H](C2)N(C)CC3` [Dextromethorphan hydrobromide, morphinan, 3-methoxy-17-methyl-, (9α, 13α, 14α), hydrobromide monohydrate] as the molecule, how does the solubility in water [3] read?
**A.** sparingly soluble

**Q.** With `COc1ccc2c(c1)[C@]13CCCC[C@@H]1[C@H](C2)N(C)CC3` [dextromethorphan] as the molecule, how does the “change in Cmax when administered with food” value [4] read?
**A.** unchanged

**Q.** What about the “decrease in AUC0-12 when administered with food” value [4] of the same molecule?
**A.** 14%

**Q.** What about the “steady state plasma concentrations compared with non-poor metabolizers” value [5] of the same molecule?
**A.** generally higher

**Q.** What about the “increase in AUC0-12 with concomitant paroxetine” value [6, 10] of the same molecule?
**A.** 2.69 fold

**Q.** What about the “increase in Cmax with concomitant paroxetine” value [6, 10] of the same molecule?
**A.** 2.38 fold

**Q.** What about the “change in overall exposure caused by paroxetine” value ([6]; 29 healthy volunteers, paroxetine co-administered with the subject combination) of the same molecule?
**A.** 2.5 fold

**Q.** What about the “dose proportionality of changes in AUC and Cmax at steady state” value ([7]; varying doses of bupropion (75 to 150 mg)) of the same molecule?
**A.** less than dose-proportional

**Q.** What about the “dose proportionality of changes in AUC and Cmax at steady state” value ([7]; varying doses of dextromethorphan (30 to 60 mg)) of the same molecule?
**A.** greater than dose-proportional

**Q.** What about the “increase in mean elimination half-life as compared to dextromethorphan given without bupropion” value ([7]; following 8 days of administration of the subject combination in extensive metabolizers) of the same molecule?
**A.** approximately 3 fold

**Q.** What about the “accumulation ratio at steady state based on AUC0-12” value [7, 11] of the same molecule?
**A.** about 32

**Q.** And the “accumulation ratio at steady state based on Cmax” value [7, 11]?
**A.** about 20

**Q.** And the “increase in exposure versus matched controls with normal renal function” value [1, 12]?
**A.** approximately 2 fold

**Q.** What about the “reduction in clearance versus matched controls with normal renal function” value [1, 12] of the same molecule?
**A.** 50%

**Q.** What about the “AUC0-12 and Cmax compared with healthy patients” value ([2]; patients having moderate hepatic impairment (Group 2)) of the same molecule?
**A.** not significantly different

**Q.** With `CC(NC(C)(C)C)C(O)c1cccc(Cl)c1` (centres unmarked) [erythrohydroxybupropion] as the molecule, how does the “AUC0-12 relative to that of bupropion” value [7] read?
**A.** about 1.2 times

**Q.** What about the “Cmax relative to that of bupropion” value [7] of the same molecule?
**A.** approximately equal to

**Q.** What about the “time post-dose at which Cmax of the metabolite occurs” value [7] of the same molecule?
**A.** approximately 4 hours

**Q.** What about the “apparent elimination half-life of metabolite” value [7] of the same molecule?
**A.** ~44 h

**Q.** What does the source list for `CN[C@]1(c2ccccc2Cl)CCCCC1=O` [esketamine]?
**A.** incidence of sedation (MOAA/S score <5) compared to placebo plus oral antidepressant ([8]; adults with MDD with acute suicidal ideation or behavior, plus oral antidepressant): higher incidence of sedation; Incidence of Sedation (MOAA/S score <5) ([8]; fixed-dose study, TRD patients <65 years, 56 mg + oral AD): 50%; Incidence of Sedation (MOAA/S score <5) ([8]; fixed-dose study, TRD patients <65 years, 84 mg + oral AD): 61%; Incidence of Sedation (MOAA/S score <5) ([8]; flexible-dose study, TRD patients ≥65 years, 28 to 84 mg + oral AD): 49%

**Q.** What does the source list for `C[C@H]1NC(C)(C)CO[C@]1(O)c1cccc(Cl)c1` [hydroxybupropion]?
**A.** AUC0-12 relative to that of bupropion [7]: about 19 times; Cmax relative to that of bupropion [7]: approximately 14 times; time post-dose at which Cmax of the metabolite occurs [7]: about 3 hours; apparent elimination half-life of metabolite [7]: approximately 35 hours

**Q.** For `Fc1ccc([C@@H]2CCNC[C@H]2COc2ccc3c(c2)OCO3)cc1` [paroxetine], which “increase in overall exposure when co-administered with the subject combination” value [9] is on record?
**A.** 1.2 fold

**Q.** Which “AUC0-12 relative to that of bupropion” value [7] does the source give for `C[C@H](NC(C)(C)C)[C@@H](O)c1cccc(Cl)c1` [threohydroxybupropion] here?
**A.** about 7 times

**Q.** What about the “Cmax relative to that of bupropion” value [7] of the same molecule?
**A.** about 5 times

**Q.** What about the “time post-dose at which Cmax of the metabolite occurs” value [7] of the same molecule?
**A.** approximately 4 hours

**Q.** And the “apparent elimination half-life of metabolite” value [7]?
**A.** ~33 h
